# According to patent US7300784B2 (priority 2001, dated 2007):
# “And” between values parts separate entries of the source, which are not always exact repeats. Equal entries are not always repeated. Where two headings read alike, the source gives them in different places.
# Experiments:
# [1] = system: nitrile hydratase of Rhodococcus sp. Cr4; assay: Effect of coexisting Ni++ ion with various substrates; assay type: biochemical
# Procedure: Then, with the standard composition of reaction solution shown in table 2, various types of substrates, instead of 3-cyanopyridine, were added to the solutions containing 2.92 U enzyme to study their effects on the activity. […] The addition of Ni^++ ion was assumed to specifically enhance the reaction efficiency when the substrate was a α-hydroxynitrile (Table 11).
# The incubation was prolonged for 10 minutes at 20° C. using 2.92 U enzyme. 17. Determination of N-Terminal Amino Acid Sequence
# [2] = system: nitrile hydratase of Rhodococcus sp. Cr4; assay: Effect of substrate concentration (Km value, Lineweaver-Burk plot); assay type: biochemical; conditions: 20° C., 15 minutes
# Procedure: The Km value for HMBN was determined from the S-V plot (FIG. 4) and Lineweaver-Burk plot (FIG. 5). 0.0585 U of the enzyme was added to solutions containing HMBN at various concentrations and the reactions were incubated at 20° C. for 15 minutes. The reactions were analyzed by HPLC.
# In addition, the Km value for 3-cyanopyridine was determined from the S-V plot (FIG. 6) and Lineweaver-Burk plot (FIG. 7). Similarly, 0.0265 U of the enzyme was added to solutions containing 3-cyanopyridine at various concentrations and the reactions were incubated at 20° C. for 15 minutes. The reactions were analyzed by HPLC.
# [3] = system: nitrile hydratase of Rhodococcus sp. Cr4; assay: Substrate specificity of the purified nitrile hydratase (amide formation by HPLC); assay type: biochemical; conditions: compound used as substrate, 20° C., 2.92 U enzyme
# Procedure: The standard assay method for the nitrile hydratase activity used in the following Examples as follows. The enzyme reaction is initiated by adding 3-cyanopyridine or 2-hydroxy-4-methylthiobutyronitrile (HMBN) as the substrate compound. In the case of 3-cyanopyridine, incubation was continued at 20° C. for 10 minute, in the case of HMBN, at 20° C. for 15 minutes. When 3-cyanopyridine was used in the reaction, 0.1 ml of 2 N hydrochloric acid was added to the reaction and the mixture was shaken vigorously to stop the reaction; when HMBN was used in the reaction, 0.1 ml of the reaction solution was added to 0.9 ml of 0.1% (v/v) phosphoric acid and the mixture was shaken vigorously to stop the reaction. The reaction solution was analyzed by HPLC.
# • 0.3 M 3-cyanopyridine was added to initiate the reaction. • The mixture was incubated with shaking at 20° C. for […]. • 2 N HCl was added to stop the reaction. • Centrifugation. • HPLC analysis.
# The substrate specificity of the enzymewas examined. With the standard composition reaction solution shown in table 2, 2.92 U enzyme was incubated with various types of substrates, instead of 3-cyanopyridine; the generation of amides in the reaction solution was analyzed by HPLC. Thus, the relative activity was determined. The types of substrate compounds added, final concentrations thereof, reaction times, and HPLC conditions used for the analyses of products corresponding to the respective substrates are shown in Table 6. The HPLC conditions (1)-(9) are indicated next to Table 6.
# The conditions for HPLC were as follows: • (1) Column: Waters Spherisorb 5 μODS2 (4.6×150 mm); • Solvent: 10 mM KH2PO4(pH 2.8)/acetonitrile (v/v)=9:1; • Flow rate: 1.0 ml/min; • Detection: 230 nm; • Injection volume: 5 μl. • (2) Column: Waters Spherisorb 5 μODS2 (4.6×150 mm); • Solvent: 10 mM KH2PO4(pH 2.8)/acetonitrile (v/v)=9:1; • Flow rate: 1.0 ml/min; • Detection: 230 nm; • Injection volume:5 μl. • (3) Column: Waters Spherisorb 5 μODS2 (4.6×150 mm); • Solvent: 5 mM KH2PO4 (pH 2.8)/acetonitrile (v/v)=12:7; • Flow rate: 1.0 ml/min; • Detection: 230 nm; • Injection volume: 5 μl. • (4) Column: Waters Spherisorb 5 μODS2 (4.6×150 mm); • Solvent: 10 mM KH2PO4(pH 2.5)/acetonitrile (v/v)=99:1; • Flow rate: 1.0 ml/min; • Detection: 210 nm; • Injection volume: 5 μl. • (5) Column: Waters Spherisorb 5 μODS2 (4.6×150 mm); • Solvent: 10 mM KH2PO4(pH 2.5)/acetonitrile (v/v)=99:1; • Flow rate: 1.0 ml/min; • Detection: 230 nm; • Injection volume: 5 μl. • (6) Column: Spherisorb S5ODS2 (4.6×150 mm) • Solvent: 0.1% (v/v) phosphate/acetonitrile (v/v)=99:1; • Flow rate: 1.0 ml/min; • Detection: 210 nm; • Injection volume: 5 μl. • (7) Column: Spherisorb S5ODS2 (4.6×150 mm); • Solvent: 0.1% (v/v) phosphate/acetonitrile (v/v)=9:1; • Flow rate: 1.0 ml/min; • Detection: 210 nm; • Injection volume: 5 μl; • Temperature: 40° C. • (8) Column: Spherisorb S5ODS2 (4.6×150 mm); • Solvent: 0.1%(v/v) phosphate/acetonitrile (v/v)=9:1; • Flow rate: 1.0 ml/min; • Detection: 230 nm; • Injection volume: 5 μl • Temperature: 40° C. • (9) Column: Spherisorb S5ODS2 (4.6×150 mm); • Solvent: 5 mM KH2PO4 (pH 2.8)/acetonitrile (v/v)=12:7; • Flow rate: 1.0 ml/min; • Detection: 210 nm; • Injection volume: 5 μl; • Temperature: 40° C. 13. The Effect of Inhibitors on the Enzymatic Activity
# [4] = system: nitrile hydratase of Rhodococcus sp. Cr4; assay type: biochemical
# [5] = system: Rhodococcus sp. Cr4; assay type: cell-based
# [6] = system: Rhodococcus rhodochrous ATCC 332878; assay type: cell-based
# [7] = activity for 3-cyanopyridine = 100%
Compound,"activity, Free [1]","activity, NiCl2 (1 mM) [1]",Km [2],"Relative activity (%) [3, 7]",Relative activity (%) ([3]; methanol added (final conc. 20% v/v)),effect of Ni++ on activity with this substrate ([1]; Ni++ added),Relative activity (%) [4],effect on enzyme activity (words) [4],enhancement of the enzymatic activity [4],Relative activity (%) [5],effect on nitrile hydratase activity in resting cell reaction [5],Relative activity (%) [6],Relative activity (%) ([4]; 0 mM = 100)
N#Cc1cccnc1 [3-Cyanopyridine],100,99,1380 µM,100%,76.5%,–,–,–,–,–,–,–,–
"CSCCC(O)C#N (centres unmarked) [HMBN, 2-hydroxy-4-methylthiobutyronitrile]",100,196,1430 µM,154%,–,enhanced twice,–,–,–,–,–,–,–
[Cl][Ni][Cl] [NiCl2],–,–,–,–,–,–,196% and 185% and 171% and 197% and 195% and 184%,enhanced,enhanced twice,186%,enhanced,193%,–
CoCl2,–,–,–,–,–,–,154%,enhanced,1.5 times,137%,enhanced,123%,136% and 127% and 129% and 150% and 153% and 143%
